US6083944A, “Quinoline-containing α-ketoamide cysteine and serine protease inhibitors” (Cephalon, Inc., priority 1998, dated 2000)

Assays:
Type in all cases: biochemical
cathepsin B = biological target: T1, cathepsin B (Homo sapiens, UniProt P07858); experiment: Inhibition of cathepsin B (Cbz-Phe-Arg-AMC hydrolysis); details: Table 6; pH 6.0; read-out: Cath. B IC50
T1 construct: purchased Calbiochem 219364
Method: (§1) To evaluate inhibitory activity, stock solutions (40 times concentrated) of each compound to be tested were prepared in 100% anhydrous DMSO and 5 μl of each inhibitor preparation was aliquoted into each of three wells of a 96-well plate. Recombinant human calpain I, prepared by the method of Meyer et al. (Biochem. J. 1996, 314: 511-519), was diluted into assay buffer (i.e., 50 mM Tris, 50 mM NaCl, 1 mM EDTA, 1 mM EGTA, and 5 mM β-mercaptoethanol, pH 7.5, including 0.2 mM Succ-Leu-Tyr-MNA), and 175 μl was aliquoted into the same wells containing the independent inhibitor stocks as well as to positive control wells containing 5 μl DMSO, but no compound. To start the reaction, 20 μl of 50 mM CaCl2 in assay buffer was added to all wells of the plate, excepting three, which were used as background signal baseline controls. Substrate hydrolysis was monitored every 5 minutes for a total of 30 minutes. Substrate hydrolysis in the absence of inhibitor was linear for up to 15 minutes.
(§2) Inhibition of calpain I activity was calculated as the percent decrease in the rate of substrate hydrolysis in the presence of inhibitor relative to the rate in its absence. Comparison between the inhibited and control rates was made within the linear range for substrate hydrolysis. The IC50 S of inhibitors (concentration yielding 50% inhibition) were determined from the percent decrease in rates of substrate hydrolysis in the presence of five to seven different concentrations of the test compound. The results were plotted as percent inhibition versus log inhibitor concentration, and the IC50 was calculated by fitting the data to the four-parameter logistic equation shown below using the program GraphPad Prism (GraphPad Software, Inc., San Diego, Calif.).
Additionally, the order of reagents added to the plate was altered because the enzyme is consitutively active. Following inhibitor addition to the plates, appropriate 2× concentrated stock dilutions of the enzyme preparations were made in assay buffer and 100 μl added to each well. The assay was initiated by addition of 100 μl of 2× concentrated stock dilution of substrate in assay buffer. Substrate hydrolysis was monitored using a Fluoriskan II (ex=390 nm; em=460 nm).

α-chymotrypsin = biological target: T2, α-chymotrypsin (Bos taurus, UniProt P00766); experiment: Inhibition of serine protease α-chymotrypsin (Succ-Ala-Ala-Pro-Phe-AMC hydrolysis); details: Table 6; pH 7.5
T2 construct: purchased Sigma Chem. Co. C-3142
Method: as §1, §2
Additionally, because α-chymotrypsin is not a calcium sensitive enzyme and is constitutively active, following addition of inhibitor stocks to the 96 well plates, 100 μl of a 2-fold concentrated stock of enzyme in dilution buffer was first added and the reaction was started by addition of 100 μl of a 2-fold concentrated stock of substrate in assay buffer. Substrate hydrolysis was monitored every 5 minutes up to 30 minutes using a Fluoroskan II (ex=390 nm em=460 nm).

[1] = biological target: T3, Recombinant human calpain I (Homo sapiens, UniProt P07384); experiment: Inhibition of calpain I (Succ-Leu-Tyr-MNA hydrolysis); details: Tables 2-4; pH 7.5
T3 construct: made in house
T3 sequence (P07384 1-714): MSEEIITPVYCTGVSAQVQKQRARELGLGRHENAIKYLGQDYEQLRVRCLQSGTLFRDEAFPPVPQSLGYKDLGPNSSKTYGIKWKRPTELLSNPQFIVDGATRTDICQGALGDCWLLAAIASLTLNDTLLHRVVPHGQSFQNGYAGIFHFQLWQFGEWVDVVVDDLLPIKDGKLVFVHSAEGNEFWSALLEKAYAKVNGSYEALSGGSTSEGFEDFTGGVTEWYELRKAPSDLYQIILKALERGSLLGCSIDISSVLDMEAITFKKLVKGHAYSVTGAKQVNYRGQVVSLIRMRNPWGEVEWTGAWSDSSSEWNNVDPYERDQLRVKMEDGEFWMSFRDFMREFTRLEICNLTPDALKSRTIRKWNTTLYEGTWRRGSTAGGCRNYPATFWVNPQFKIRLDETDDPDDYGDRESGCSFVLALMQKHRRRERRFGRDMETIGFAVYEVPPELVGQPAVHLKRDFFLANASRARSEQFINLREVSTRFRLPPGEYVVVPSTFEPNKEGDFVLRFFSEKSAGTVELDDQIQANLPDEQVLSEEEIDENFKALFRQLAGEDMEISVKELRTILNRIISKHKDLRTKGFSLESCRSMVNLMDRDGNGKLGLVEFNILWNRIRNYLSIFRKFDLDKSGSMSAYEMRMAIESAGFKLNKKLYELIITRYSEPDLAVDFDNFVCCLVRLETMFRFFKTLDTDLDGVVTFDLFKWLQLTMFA
Method: as §1, §2
The parameters a, b, c, and d are defined as follows: a is % inhibition in the absence of inhibitor, b is the slope, c is the IC50, and d is the % inhibition at an infinite concentration of inhibitor.

Structure (SMILES)	IC50 (cathepsin B) [nM]	IC50 (α-chymotrypsin) [nM]	IC50 [1] [nM]
O=C(NCCNS(=O)(=O)c1ccc([N+](=O)[O-])cc1)C(=O)C(Cc1ccccc1)NC(=O)c1cc(C#Cc2ccccc2)nc2ccccc12 (single isomer, unassigned) [Example 84]	348	14	
CCONC(=O)C(=O)C(Cc1ccccc1)NC(=O)c1cc(C#Cc2ccccc2)nc2ccccc12 (centres unmarked) [Example 103]	435	380	65

The remaining compounds from weak to strong by IC50 (cathepsin B), led by results:

IC50 (cathepsin B) [nM]	IC50 (α-chymotrypsin) [nM]	IC50 [1] [nM]	Structure (SMILES)
375	66	29	O=C(NCCNS(=O)(=O)c1ccccc1)C(=O)[C@H](Cc1ccccc1)NC(=O)c1cc(C#Cc2ccccc2)nc2ccccc12 [Example 96]
360	36	55	O=C(NCCCNS(=O)(=O)c1ccccc1)C(=O)C(Cc1ccccc1)NC(=O)c1cc(C#Cc2ccccc2)nc2ccccc12 (centres unmarked) [Example 100]
330	1160	60	O=C(NOCc1ccccc1)C(=O)C(Cc1ccccc1)NC(=O)c1cc(C#Cc2ccccc2)nc2ccccc12 (centres unmarked) [Example 104]
